Patent US20210052703A1 (SHANGHAI BENEMAE PHARMACEUTICAL CORPORATION, priority 2018, published 2021)

What was measured:
type 2 diabetic patients [1] = test: trial 5B: Beinaglutide with metformin in type 2 diabetic patients
[2] = tested on: rabbits with normal glycemic index; test: glucose-induced high blood sugar in rabbits; assay type: in vivo
[3] = trials 5A and 5B: time course of action and adverse events; assay type: in vivo, human
rats = test: blood sugar increase induced by alloxan and streptozotocin in rats; assay type: in vivo
mice = test: blood sugar increase induced by alloxan and streptozotocin in mice; assay type: in vivo
Sprague-Dawley (SD) rats = test: stomach emptying in male and female SD rats, various dosages (Example 6); details: for % of Gastric Remains / Gross Weight of Stomach / Propelling Distance of Carbon Powder / Propelling Rate of Carbon Powder: X ± SE
Procedure: Five minutes after subcutaneous injection, gavage was conducted using 5% carbon powder suspension (in 2% carboxymethylcellulose solution) at 1.5 ml/100 g body weight. […] The stomach was wiped dry with filter paper and weighed for the gross weight of the stomach. Then the content of the stomach was removed and the stomach was weighed for the net weight. The respective distance from the pyloric sphincter to the front of carbon powder suspension and to the distal end of the large intestine was measured. • propelling distance of carbon powder in the intestine (cm)=distance from pylorus to the proximal end of carbon powder; • mass of carbon powder gavaged=concentration of carbon powder suspension×volume; • propelling rate of carbon powder (%)=propelling distance of carbon powder in the intestine (cm)/entire length of intestine (cm)×100%; • rate of gastric remains (%)=(gross weight of stomach−net weight of stomach)/mass of carbon powder gavaged×100%.
The animals were fasted 29-33 hours before injection, and the animals were not given any water 5-7 hours before injection. Injections were made by subcutaneous administration to the neck, at 0.1 ml/100 g body weight.

[4] = tested on: mice with normal glycemic index; test: glucose-induced high blood sugar in mice; assay type: in vivo
type 2 diabetic patients [5] = test: trial 5A: Beinaglutide with glipizide in type 2 diabetic patients; assay type: in vivo, human
[6] = female rats, 10 μg/kg subcutaneous
[7] = female rats, 12.5 μg/kg subcutaneous
[8] = female rats, 15 μg/kg subcutaneous
[9] = female rats, 30 μg/kg subcutaneous
[10] = female rats, 45 μg/kg subcutaneous
[11] = female rats, 60 μg/kg subcutaneous
[12] = male rats, 10 μg/kg subcutaneous
[13] = male rats, 12.5 μg/kg subcutaneous
[14] = male rats, 15 μg/kg subcutaneous
[15] = male rats, 30 μg/kg subcutaneous
[16] = male rats, 45 μg/kg subcutaneous
[17] = male rats, 60 μg/kg subcutaneous

Structure (SMILES): CC[C@H](C)[C@H](NC(=O)[C@H](Cc1ccccc1)NC(=O)[C@H](CCC(=O)O)NC(=O)[C@H](CCCCN)NC(=O)[C@H](C)NC(=O)[C@H](C)NC(=O)[C@H](CCC(N)=O)NC(=O)CNC(=O)[C@H](CCC(=O)O)NC(=O)[C@H](CC(C)C)NC(=O)[C@H](Cc1ccc(O)cc1)NC(=O)[C@H](CO)NC(=O)[C@H](CO)NC(=O)[C@@H](NC(=O)[C@H](CC(=O)O)NC(=O)[C@H](CO)NC(=O)[C@@H](NC(=O)[C@H](Cc1ccccc1)NC(=O)[C@@H](NC(=O)CNC(=O)[C@H](CCC(=O)O)NC(=O)[C@H](C)NC(=O)[C@@H](N)Cc1cnc[nH]1)[C@@H](C)O)[C@@H](C)O)C(C)C)C(=O)N[C@@H](C)C(=O)N[C@@H](Cc1c[nH]c2ccccc12)C(=O)N[C@@H](CC(C)C)C(=O)N[C@H](C(=O)N[C@@H](CCCCN)C(=O)NCC(=O)N[C@@H](CCCNC(=N)N)C(=O)O)C(C)C [Beinaglutide]
- BMI (type 2 diabetic patients [1]; 0.1 mg three times a day with metformin, treatment for 2 weeks, FAS n = 73, Day 1 26.24 ± 3.31): 26.12 ± 3.29 kg/m^2
- BMI (type 2 diabetic patients [1]; 0.1 mg three times a day with metformin, treatment for 4 weeks, FAS n = 73, Day 1 26.24 ± 3.31): 26.02 ± 3.33 kg/m^2
- BMI (type 2 diabetic patients [1]; 0.1 mg three times a day with metformin, treatment for 8 weeks, FAS n = 73, Day 1 26.24 ± 3.31): 25.84 ± 3.25 kg/m^2
- BMI (type 2 diabetic patients [1]; 0.1 mg three times a day with metformin, treatment for 12 weeks, FAS n = 73, Day 1 26.24 ± 3.31): 25.76 ± 3.21 kg/m^2
- BMI (type 2 diabetic patients [1]; 0.2 mg three times a day with metformin, treatment for 2 weeks, FAS n = 70, Day 1 25.14 ± 3.10): 25.03 ± 3.21 kg/m^2
- BMI (type 2 diabetic patients [1]; 0.2 mg three times a day with metformin, treatment for 4 weeks, FAS n = 70, Day 1 25.14 ± 3.10): 24.85 ± 3.25 kg/m^2
- BMI (type 2 diabetic patients [1]; 0.2 mg three times a day with metformin, treatment for 8 weeks, FAS n = 70, Day 1 25.14 ± 3.10): 24.54 ± 3.33 kg/m^2
- BMI (type 2 diabetic patients [1]; 0.2 mg three times a day with metformin, treatment for 12 weeks, FAS n = 70, Day 1 25.14 ± 3.10): 24.43 ± 3.42 kg/m^2
- effect on glucose-induced high blood sugar [2]: lower glucose-induced high blood sugar
- adverse events ([3]; Beinaglutide clinical trials): mild to moderate nausea and vomiting
- peak time ([3]; after administration (injection), type 2 diabetic patients): 20 min
- half-life ([3]; human, in vivo, other: injection, type 2 diabetic patients, read-out: half-life (duration of action)): ~15 min
- effect on increase of blood sugar induced by alloxan and streptozotocin (rats): reduce the increase of blood sugar induced by alloxan and streptozotocin
- effect on increase of blood sugar induced by alloxan and streptozotocin (mice): reduce the increase of blood sugar induced by alloxan and streptozotocin
- minimal effective dosage (inhibition of stomach emptying) (Sprague-Dawley (SD) rats; female rats): 10 µg/kg
- % of Gastric Remains (Sprague-Dawley (SD) rats; [6]): 36.42 ± 6.50%
- Gross Weight of Stomach (Sprague-Dawley (SD) rats; [6]): 1.86 ± 0.14 g
- Propelling Distance of Carbon Powder (Sprague-Dawley (SD) rats; [6]): 53.01 ± 3.12 cm
- Propelling Rate of Carbon Powder (Sprague-Dawley (SD) rats; [6]): 49.92 ± 2.97 %
- % of Gastric Remains (Sprague-Dawley (SD) rats; [7]): 47.54 ± 5.22%
- Gross Weight of Stomach (Sprague-Dawley (SD) rats; [7]): 2.03 ± 0.10 g
- Propelling Distance of Carbon Powder (Sprague-Dawley (SD) rats; [7]): 49.50 ± 2.54 cm
- Propelling Rate of Carbon Powder (Sprague-Dawley (SD) rats; [7]): 46.83 ± 2.41 %
- % of Gastric Remains (Sprague-Dawley (SD) rats; [8]): 51.86 ± 6.07%
- Gross Weight of Stomach (Sprague-Dawley (SD) rats; [8]): 2.18 ± 0.11 g
- Propelling Distance of Carbon Powder (Sprague-Dawley (SD) rats; [8]): 44.50 ± 2.97 cm
- Propelling Rate of Carbon Powder (Sprague-Dawley (SD) rats; [8]): 41.26 ± 2.63 %
- % of Gastric Remains (Sprague-Dawley (SD) rats; [9]): 73.35 ± 16.68 %
- Gross Weight of Stomach (Sprague-Dawley (SD) rats; [9]): 2.59 ± 0.38 g
- Propelling Distance of Carbon Powder (Sprague-Dawley (SD) rats; [9]): 33.96 ± 5.58 cm
- Propelling Rate of Carbon Powder (Sprague-Dawley (SD) rats; [9]): 32.15 ± 5.54 %
- % of Gastric Remains (Sprague-Dawley (SD) rats; [10]): 120.95 ± 9.48 %
- Gross Weight of Stomach (Sprague-Dawley (SD) rats; [10]): 3.55 ± 0.21 g
- Propelling Distance of Carbon Powder (Sprague-Dawley (SD) rats; [10]): 25.06 ± 5.91 cm
- Propelling Rate of Carbon Powder (Sprague-Dawley (SD) rats; [10]): 23.18 ± 5.46 %
- % of Gastric Remains (Sprague-Dawley (SD) rats; [11]): 141.28 ± 8.90 %
- Gross Weight of Stomach (Sprague-Dawley (SD) rats; [11]): 3.90 ± 0.20 g
- Propelling Distance of Carbon Powder (Sprague-Dawley (SD) rats; [11]): 15.71 ± 4.58 cm
- Propelling Rate of Carbon Powder (Sprague-Dawley (SD) rats; [11]): 14.36 ± 4.08 %
- human dose corresponding to minimal effective dosage (Sprague-Dawley (SD) rats; from female rats 10 μg/kg): 0.11 mg/day
- human dose corresponding to minimal effective dosage (Sprague-Dawley (SD) rats; from male rats 30 μg/kg): 0.33 mg/day
- minimal effective dosage (inhibition of stomach emptying) (Sprague-Dawley (SD) rats; male rats): 30 µg/kg
- % of Gastric Remains (Sprague-Dawley (SD) rats; [12]): 39.93 ± 6.46%
- Gross Weight of Stomach (Sprague-Dawley (SD) rats; [12]): 2.39 ± 0.19 g
- Propelling Distance of Carbon Powder (Sprague-Dawley (SD) rats; [12]): 55.20 ± 2.69 cm
- Propelling Rate of Carbon Powder (Sprague-Dawley (SD) rats; [12]): 50.91 ± 2.84%
- % of Gastric Remains (Sprague-Dawley (SD) rats; [13]): 38.98 ± 3.50%
- Gross Weight of Stomach (Sprague-Dawley (SD) rats; [13]): 2.36 ± 0.09 g
- Propelling Distance of Carbon Powder (Sprague-Dawley (SD) rats; [13]): 54.96 ± 3.96 cm
- Propelling Rate of Carbon Powder (Sprague-Dawley (SD) rats; [13]): 50.36 ± 3.34%
- % of Gastric Remains (Sprague-Dawley (SD) rats; [14]): 40.22 ± 7.06%
- Gross Weight of Stomach (Sprague-Dawley (SD) rats; [14]): 2.42 ± 0.20 g
- Propelling Distance of Carbon Powder (Sprague-Dawley (SD) rats; [14]): 52.27 ± 3.75 cm
- Propelling Rate of Carbon Powder (Sprague-Dawley (SD) rats; [14]): 48.22 ± 3.05%
- % of Gastric Remains (Sprague-Dawley (SD) rats; [15]): 58.23 ± 7.38 %
- Gross Weight of Stomach (Sprague-Dawley (SD) rats; [15]): 2.92 ± 0.23 g
- Propelling Distance of Carbon Powder (Sprague-Dawley (SD) rats; [15]): 42.82 ± 2.81 cm
- Propelling Rate of Carbon Powder (Sprague-Dawley (SD) rats; [15]): 38.55 ± 2.81 %
- % of Gastric Remains (Sprague-Dawley (SD) rats; [16]): 97.66 ± 9.95 %
- Gross Weight of Stomach (Sprague-Dawley (SD) rats; [16]): 3.90 ± 0.27 g
- Propelling Distance of Carbon Powder (Sprague-Dawley (SD) rats; [16]): 15.73 ± 4.30 cm
- Propelling Rate of Carbon Powder (Sprague-Dawley (SD) rats; [16]): 14.67 ± 4.13 %
- % of Gastric Remains (Sprague-Dawley (SD) rats; [17]): 110.28 ± 7.79 %
- Gross Weight of Stomach (Sprague-Dawley (SD) rats; [17]): 4.21 ± 0.19 g
- Propelling Distance of Carbon Powder (Sprague-Dawley (SD) rats; [17]): 14.64 ± 4.32 cm
- Propelling Rate of Carbon Powder (Sprague-Dawley (SD) rats; [17]): 12.91 ± 3.68 %
- effect on glucose-induced high blood sugar [4]: lower glucose-induced high blood sugar
- BMI (type 2 diabetic patients [5]; 0.1 mg three times a day with glipizide, treatment for 2 weeks, FAS n = 24, before treatment 25.51 ± 2.59): 25.53 ± 2.63 kg/m^2
- BMI (type 2 diabetic patients [5]; 0.1 mg three times a day with glipizide, treatment for 4 weeks, FAS n = 24, before treatment 25.51 ± 2.59): 25.40 ± 2.64 kg/m^2
- BMI (type 2 diabetic patients [5]; 0.1 mg three times a day with glipizide, treatment for 8 weeks, FAS n = 24, before treatment 25.51 ± 2.59): 25.25 ± 2.57 kg/m^2
- BMI (type 2 diabetic patients [5]; 0.1 mg three times a day with glipizide, treatment for 12 weeks, FAS n = 24, before treatment 25.51 ± 2.59): 25.20 ± 2.60 kg/m^2
- BMI (type 2 diabetic patients [5]; 0.15 mg three times a day with glipizide, treatment for 2 weeks, FAS n = 24, before treatment 25.66 ± 2.64): 25.63 ± 2.57 kg/m^2
- BMI (type 2 diabetic patients [5]; 0.15 mg three times a day with glipizide, treatment for 4 weeks, FAS n = 24, before treatment 25.66 ± 2.64): 25.45 ± 2.63 kg/m^2
- BMI (type 2 diabetic patients [5]; 0.15 mg three times a day with glipizide, treatment for 8 weeks, FAS n = 24, before treatment 25.66 ± 2.64): 25.19 ± 2.48 kg/m^2
- BMI (type 2 diabetic patients [5]; 0.15 mg three times a day with glipizide, treatment for 12 weeks, FAS n = 24, before treatment 25.66 ± 2.64): 25.11 ± 2.60 kg/m^2
- BMI (type 2 diabetic patients [5]; 0.2 mg three times a day with glipizide, treatment for 2 weeks, FAS n = 23, before treatment 26.71 ± 4.17): 26.44 ± 4.14 kg/m^2
- BMI (type 2 diabetic patients [5]; 0.2 mg three times a day with glipizide, treatment for 4 weeks, FAS n = 23, before treatment 26.71 ± 4.17): 26.52 ± 3.95 kg/m^2
- BMI (type 2 diabetic patients [5]; 0.2 mg three times a day with glipizide, treatment for 8 weeks, FAS n = 23, before treatment 26.71 ± 4.17): 26.09 ± 4.04 kg/m^2
- BMI (type 2 diabetic patients [5]; 0.2 mg three times a day with glipizide, treatment for 12 weeks, FAS n = 23, before treatment 26.71 ± 4.17): 25.92 ± 3.95 kg/m^2
